Here are results for eleven compounds from US7141590B2, “Pharmaceutical uses and synthesis of nicotinanilide-N-oxides” (UCB SA, priority 2000, dated 2006).

The term IC50 denotes the point on the concentration scale where inhibition reaches its midpoint. In general, Ki refers to a measure of affinity in units of concentration, obtained from inhibition or displacement.

Experiment [1] addresses T1, human CXCR1 (IL8RA) chemokine receptor (Homo sapiens, UniProt P25024).
T1 construct: host or cells: CHO cells
T1 sequence (P25024 1-350): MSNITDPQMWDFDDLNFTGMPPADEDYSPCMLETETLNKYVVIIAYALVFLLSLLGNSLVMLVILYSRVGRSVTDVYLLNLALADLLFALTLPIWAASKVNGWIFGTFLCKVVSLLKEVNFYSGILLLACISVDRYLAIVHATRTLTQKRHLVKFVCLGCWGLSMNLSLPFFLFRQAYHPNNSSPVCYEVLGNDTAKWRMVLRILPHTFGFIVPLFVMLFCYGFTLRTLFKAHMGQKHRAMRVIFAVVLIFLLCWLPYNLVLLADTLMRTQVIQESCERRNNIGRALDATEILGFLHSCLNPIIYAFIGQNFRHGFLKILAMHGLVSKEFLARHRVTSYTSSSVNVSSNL
Description: CXCR1 assay ([125I]Interleukin-8 binding). The note with it: screened at 10 μM; Panlabs; read-out: CXCR1 specific binding (%). The procedure:
This assay measures binding of [^125I]Interleukin-8 to human interleukin-CXCR1 (ILR8A) receptors. See Ahuja, S. K. and Murphy, P. M. J. Biol. Chem. 271:20545–20550, 1996 for details. In brief, CHO cells stably transfected with a plasmid encoding the human CXCR1 (IL8RA) chemokine receptor were used to prepare membranes in modified HEPES pH 7.4 buffer using standard techniques. A 5 μg aliquot of membrane was incubated with 8 pM [^125I]Interleukin-8 for 60 minutes at room temperature. Non-specific binding was estimated in the presence of 10 nM interleukin-8. Membranes were filtered and washed 3 times and the filters were counted to determine [^125I]Interleukin-8 specifically bound. Compounds were screened at 10 μM, with the data reported in Table 6 (row titled “CXCR1”) in terms of specific binding (%).

Another experiment relates to somatostatin receptors. Description: Somatostatin assay ([125I]tyr1 Somatostatin binding, AtT-20 membranes). More on the design: species or system mouse. The note with it: screened at 10 μM; Panlabs. The procedure:
This assay measures binding of [^125I]tyr^1 Somatostatin to somatostatin receptors. See Thermos, K. and Reisine, T. Mol. Pharmacol. 33:370–377, 1988, and Srikant, C. B. and Heisler, S., Endocrinology 117:271–278, 1985. In brief, AtT-20 (mouse pituitary) cells were used to prepare membranes in modified Tris-HCl pH 7.5 buffer using standard techniques. A 200 μg aliquot of membrane was incubated with 0.04 nM [^125I]tyr^1 Somatostatin for 60 minutes at 25° C. Non-specific binding was estimated in the presence of 1 μM somatostatin-14. Membranes were filtered and washed 3 times and the filters were counted to determine [^125I]tyr^1 Somatostatin specifically bound. Compounds were screened at 10 μM, with the data reported in Table 6 (row titled “Somat.”) in terms of specific binding (%).

The target of experiment [2] is T2, human CXCR2 (IL8RB) chemokine receptor (Homo sapiens, UniProt P25025).
T2 construct: host or cells: CHO cells
T2 sequence (P25025 1-360): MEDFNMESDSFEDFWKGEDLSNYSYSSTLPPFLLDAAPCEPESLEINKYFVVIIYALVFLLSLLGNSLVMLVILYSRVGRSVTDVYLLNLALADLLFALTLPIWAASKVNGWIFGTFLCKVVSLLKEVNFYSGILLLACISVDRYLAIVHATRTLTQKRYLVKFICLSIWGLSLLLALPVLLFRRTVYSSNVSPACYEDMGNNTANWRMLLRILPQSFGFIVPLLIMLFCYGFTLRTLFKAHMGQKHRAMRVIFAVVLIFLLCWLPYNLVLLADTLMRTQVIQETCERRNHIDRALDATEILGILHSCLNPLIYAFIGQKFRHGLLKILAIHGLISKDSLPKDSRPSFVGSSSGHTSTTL
As to the kind of experiment: Panlabs CXCR2 filtermat binding assay ([125I]Interleukin-8). The note with it: 1 h, screened at 10 μM, read-out: CXCR2 specific binding (%). As for the experimental part: Selected compounds were screened by Panlabs (Bothell Wash.) using their CXCR2 filtermat binding assay. This assay measures binding of [^125I]Interleukin-8 to human interleukin-CXCR2 (IL8RB) receptors and is also described in Ahuja, S. K. and Murphy, P. M., J. Biol. Chem. 271:20545–20550, 1996. In summary, CHO cells stably transfected with a plasmid encoding the human CXCR2 (IL8RB) chemokine receptor were used to prepare membranes in modified HEPES pH 7.4 buffer. A 2 μg aliquot of membrane was incubated with 15 pM [^125I]Interleukin-8 for 60 minutes at room temperature. Non-specific binding was estimated in the presence of 10 nM interleukin-8. Membranes were filtered and washed 3 times and the filters were counted to determine [^125I]Interleukin-8 specifically bound. Compounds were screened at 10 μM and results are reported in terms of Specific Binding (%) in Tables 3–5.
This assay measures binding of [^125I]Interleukin-8 to human interleukin-CXCR2 (IL8RB) receptors. See Ahuja, S. K. and Murphy, P. M., J. Biol. Chem. 271: 20545–20550, 1996, for details. In brief, CHO cells stably transfected with a plasmid encoding the human CXCR2 (IL8RB) chemokine receptor were used to prepare membranes in modified HEPES pH 7.4 buffer using standard techniques. A 2 μg aliquot of membrane was incubated with 15 pM [^125I]Interleukin-8 for 60 minutes at room temperature. Non-specific binding was estimated in the presence of 10 nM interleukin-8. Membranes were filtered and washed 3 times and the filters were counted to determine [^125I]Interleukin-8 specifically bound. Compounds were screened at 10 μM, with the results reported in Table 6 (row titled “CXCR2”) in terms of specific binding (%).

Experiment [3] has as its target T3, human neuropeptide Y1 (NPY1) receptors (Homo sapiens, UniProt P25929).
T3 construct: host or cells: SK-N-MC (human neuroblastoma) cells
T3 sequence (P25929 1-384): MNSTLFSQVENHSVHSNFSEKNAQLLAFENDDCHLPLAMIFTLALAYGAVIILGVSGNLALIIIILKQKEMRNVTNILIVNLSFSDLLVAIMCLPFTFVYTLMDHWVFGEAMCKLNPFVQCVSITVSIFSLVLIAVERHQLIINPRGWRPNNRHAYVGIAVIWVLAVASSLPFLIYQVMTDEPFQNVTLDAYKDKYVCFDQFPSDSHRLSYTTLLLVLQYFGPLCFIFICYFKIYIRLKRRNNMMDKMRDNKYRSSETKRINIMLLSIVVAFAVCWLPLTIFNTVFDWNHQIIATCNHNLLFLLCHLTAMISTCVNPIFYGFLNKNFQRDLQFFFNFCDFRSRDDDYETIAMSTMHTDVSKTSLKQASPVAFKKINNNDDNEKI
Description: NPY1 assay ([125I]Peptide YY binding, SK-N-MC cells). The note with it: screened at 10 μM; Panlabs. The procedure: This assay measures binding of [^125I]Peptide YY (PYY) to human neuropeptide Y1 (NPY1) receptors. See Fuhlendorff, J., et al. Proc. Natl Acad. Sci. USA 87:182–186, 1990 and Sheikh, S. P., et al. J. Biol. Chem. 264: 6648–6654, 1989. In brief, SK-N-MC (human neuroblastoma) cells were used in modified HBSS pH 7.4 buffer using standard techniques. The cells (10^6) were incubated with 12.5 pM [^125I]PYY for 45 minutes at 25° C. […] Cells were centrifuged and pellets were counted to determine [^125I]PYY specifically bound. Compounds were screened at 10 μM, with the results shown in Table 6 (row titled “NPY1”), reported in terms of specific binding (%).

For experiment [4], the target named is T4, human chemokine CCR5 receptor (Homo sapiens, UniProt P51681).
T4 construct: host or cells: CHO-K1-p242-CCR5 cells
Description: CCR5 assay ([125I]MIP-1β binding). The note with it: 2 h; screened at 10 μM; Panlabs; read-out: CCR5 specific binding (%). As for the experimental part: This assay measures the binding of [^125I]MIP-1β to human chemokine CCR5 receptors. See Samson, M., et al., J. Biol. Chem. 272:24934–24941, 1997. In brief, CHO-K1-p242-CCR5 cells stably transfected with a plasmid encoding the human chemokine CCR5 receptor were used to prepare membranes in modified HEPES buffer at pH 7.4 using standard techniques. A 1 μg aliquot was incubated with 0.1 nM [^125I]MIP-1β for 120 minutes at 25° C. Non-specific binding was estimated in the presence of 0.1 μM MIP-1β. Membranes were filtered and washed 3 times and filters were counted to determine [^125I]MIP-1β specifically bound. Compounds were screened at 10 μM. The data obtained from this assay is reported in Table 6 (row titled “CCR5”), in terms of specific binding (%).

For experiment [5], the target named is T2, human CXCR2 (IL8RB) chemokine receptor. The note with it: CXCR2 reference data; cited from earlier work.
Experiment [6] deals with T1, human CXCR1 (IL8RA) chemokine receptor. The note with it: CXCR1 reference data; cited from earlier work.

Several values for one entry are separate records, joined by “and”; a condition that tells them apart may be missing. Equal entries are not always repeated.

T4 sequence (P51681 whole entry): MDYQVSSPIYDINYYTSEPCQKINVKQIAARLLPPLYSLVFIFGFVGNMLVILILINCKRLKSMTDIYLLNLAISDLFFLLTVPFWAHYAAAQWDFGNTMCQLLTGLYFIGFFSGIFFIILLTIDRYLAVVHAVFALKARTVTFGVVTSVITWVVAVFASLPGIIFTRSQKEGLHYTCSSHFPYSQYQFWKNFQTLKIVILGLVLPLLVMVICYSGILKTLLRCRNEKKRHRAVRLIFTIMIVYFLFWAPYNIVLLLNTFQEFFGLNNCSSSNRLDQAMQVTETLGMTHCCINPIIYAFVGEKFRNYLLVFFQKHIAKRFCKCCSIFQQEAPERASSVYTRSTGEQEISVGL

`O=C(Nc1ccc(F)cc1)c1ccc(Cl)[n+]([O-])c1` [drawing 128]: the remaining activity at 10 µM in experiment [1] and in experiment [2] was over 40% each time. Also, the “Somat. specific binding (%)” value in the experiment with somatostatin receptors is listed as “* (“*” indicates a value of less than or equal to 40)”. The “NPY1 specific binding (%)” value in experiment [3] was “* (“*” indicates a value of less than or equal to 40)”.

As for `CS(=O)(=O)c1ccc(C(=O)Nc2ccc(F)cc2)c[n+]1[O-]` [drawing 129], the remaining activity at 10 µM in experiment [1], in experiment [4] and in experiment [2] was over 40% in each case. The “Somat. specific binding (%)” value in the experiment with somatostatin receptors is given as “** (“**” indicates a value of greater than 40)”. In addition, in experiment [3], the “NPY1 specific binding (%)” value is “** (“**” indicates a value of greater than 40)”.

As for `O=C(Nc1ccc(F)cc1)c1ccc(S(=O)(=O)c2ccccc2)[n+]([O-])c1` [drawing 130], the remaining activity at 10 µM is over 40% in experiment [1], at most 40% in experiment [4] and over 40% in experiment [2]. The “Somat. specific binding (%)” value in the experiment with somatostatin receptors is “* (“*” indicates a value of less than or equal to 40)”. Moreover, the “NPY1 specific binding (%)” value in experiment [3] is on record as “* (“*” indicates a value of less than or equal to 40)”.

In the case of `CCS(=O)(=O)c1ccc(C(=O)Nc2ccc(F)cc2)c[n+]1[O-]` [drawing 131], the remaining activity at 10 µM in experiment [1] was at most 40%; in experiment [4], over 40%; in experiment [2] it was over 40%. The “Somat. specific binding (%)” value in the experiment with somatostatin receptors is recorded as “* (“*” indicates a value of less than or equal to 40)”. In experiment [3], the “NPY1 specific binding (%)” value was “** (“**” indicates a value of greater than 40)”.

For `CCCS(=O)(=O)c1ccc(C(=O)Nc2ccc(F)cc2)c[n+]1[O-]` [drawing 132], the remaining activity at 10 µM in experiment [1] is at most 40%; in experiment [4] it was over 40%; in experiment [2], over 40%. The “Somat. specific binding (%)” value in the experiment with somatostatin receptors is given as “* (“*” indicates a value of less than or equal to 40)”. Further, in experiment [3], the “NPY1 specific binding (%)” value is on record as “** (“**” indicates a value of greater than 40)”.

Consider `O=C(Nc1ccc(F)cc1)c1ccc(S(=O)(=O)Cc2ccccc2)[n+]([O-])c1` [drawing 133], for which the remaining activity at 10 µM was at most 40% in experiment [1], at most 40% in experiment [4] and over 40% in experiment [2]. Further, in the experiment with somatostatin receptors, the “Somat. specific binding (%)” value is “* (“*” indicates a value of less than or equal to 40)”. The “NPY1 specific binding (%)” value in experiment [3] is given as “* (“*” indicates a value of less than or equal to 40)”.

For `O=C(Nc1ccc(F)cc1)c1ccc(S(=O)(=O)C2CCCC2)[n+]([O-])c1` [drawing 134], the remaining activity at 10 µM in experiment [1] was at most 40%; in experiment [4], over 40%; in experiment [2] it was over 40%. Moreover, the “Somat. specific binding (%)” value with somatostatin receptors is “* (“*” indicates a value of less than or equal to 40)”. Besides, in experiment [3], the “NPY1 specific binding (%)” value is “* (“*” indicates a value of less than or equal to 40)”.

For `O=C(Nc1ccc(F)c(F)c1)c1ccc(Cl)[n+]([O-])c1` [drawing 135], the remaining activity at 10 µM in experiment [1] is at most 40%; in experiment [4], at most 40%; in experiment [2], over 40%.

For `O=C(Nc1ccc(F)cc1)c1cc(Cl)c(Cl)[n+]([O-])c1` [drawing 136], the remaining activity at 10 µM in experiment [1] is over 40%; in experiment [4], at most 40%; in experiment [2] it was over 40%. Also, the “Somat. specific binding (%)” value in the experiment on somatostatin receptors is “* (“*” indicates a value of less than or equal to 40)”.

Consider “GROα (or MGSA): Growth Regulatory Oncogene α; Melanoma Growth Stimulatory Activity; CXC chemokine”, for which, in experiment [5], the IC50 was 0.098 nM; the Ki was 0.098 nM and 0.068 nM; the nH is on record as 0.9. Moreover, the half-maximal inhibitory concentration (IC50) in experiment [6] was over 10000 nM.

In the case of “Interleukin-8: CXC chemokine; standard reference agent used in CXCR1 and CXCR2 binding assays”, in experiment [5], the IC50 was 0.035 nM, the Ki was 0.024 nM and the nH is on record as 0.7. In addition, in experiment [6], the IC50 is 0.035 nM, the inhibition constant Ki was 0.007 nM and the nH was 1.0.
